Source: patent US12559474B2, “Triazine derivatives having virus replication inhibitory activity and pharmaceutical composition comprising the same” (priority 2021, dated 2026)
pEC50, pIC50: −log10 of the molar value. Like-named read-outs stand apart in the source and are kept apart here.

Key:
[1] = molecular target: SARS-CoV-2 3CL protease (Severe acute respiratory syndrome coronavirus 2, UniProt P0DTD1); test: biochemical; conditions: 50% SARS-CoV-2 3CL protease inhibitory concentration, read-out: IC50
[2] = system: SARS-CoV-2; test: microbe, parasite or virus in culture; format: cell-based; conditions: 50% SARS-CoV-2 infected cell death inhibitory concentration, VeroE6/TMPRSS2 cells, 3 days culture
[3] = Severe acute respiratory syndrome coronavirus 2, VeroE6/TMPRSS2, 72 h, class symbols
[4] = Severe acute respiratory syndrome coronavirus 2, VeroE6/TMPRSS2, 72 h, CellTiter-Glo 2.0

SMILES	pIC50 ([1]; given as class symbols)	pEC50 [2, 3]	pIC50 ([1]; RapidFire MS)	pEC50 [2, 4]	pEC50 ([2]; class symbols)
COc1ccc(Nc2nc(=O)n(Cc3ccc[nH]c3=O)c(=O)n2Cc2cc(F)c(F)c(F)c2)c(F)c1 [Compound I-0026]	> 7.00	5.00 to 6.00	–	–	–
COc1ccc(Nc2nc(=O)n(Cc3cc4ccsc4[nH]c3=O)c(=O)n2Cc2cc(F)c(F)c(F)c2)cc1 [Compound I-0081]	> 7.00	> 6.00	–	–	–
CNc1nc2cc(F)c(Nc3nc(=O)n(-c4cncc(C)c4)c(=O)n3Cc3cc(F)c(F)c(F)c3)cc2s1 [II-0291]	> 7.00	5.00 to 6.00	–	–	–
O=c1[nH]cccc1Cn1c(=O)nc(N2CC3(CCC3)C2)n(Cc2cc(F)c(F)c(F)c2)c1=O [II-0226]	–	–	6.89	5.56	–
Cc1cncc(-n2c(=O)nc(Nc3cc4c(F)n(C)nc4cc3Cl)n(Cc3cc(F)c(F)c(F)c3)c2=O)c1 [II-0464]	> 7.00	> 6.00	–	–	–
Cc1cncc(-n2c(=O)nc(Nc3cc4cn(C)nc4cc3F)n(Cc3ccc(F)c(C#N)c3)c2=O)c1 [Compound I-0384]	> 7.00	> 6.00	–	–	–
CNc1nc2ccc(Nc3nc(=O)n(Cc4cc(Cl)c[nH]c4=O)c(=O)n3Cc3cc(F)c(F)c(F)c3)cc2s1 [II-0041]	> 7.00	5.00 to 6.00	–	–	–
Cc1cncc(-n2c(=O)nc(Nc3cc4sc(NCC(F)F)nc4cc3Cl)n(Cc3ccc(F)c(C#N)c3)c2=O)c1 [II-0524]	> 7.00	5.00 to 6.00	–	–	–
O=c1nc(Nc2cc3cn(CCN4CCOCC4)nc3cc2Cl)n(Cc2cc(F)c(F)c(F)c2)c(=O)n1-c1cncc2ccccc12 [Compound I-0401]	> 7.00	5.00 to 6.00	–	–	–
Cc1cncc(-n2c(=O)nc(Nc3cc4cn(C)nc4cc3Cl)n(Cc3ccc(F)c(C#N)c3)c2=O)c1 [II-0378]	> 7.00	5.00 to 6.00	–	–	–
Cn1cnc(Cn2cc3cc(Nc4nc(=O)n(Cc5ncn(C)n5)c(=O)n4Cc4cc(Cl)c(F)cc4F)c(Cl)cc3n2)n1 [II-0003]	–	–	8.22	4.75	–
CC(=O)Nc1nc2cc(Cl)c(Nc3nc(=O)n(-c4cncc(C)c4)c(=O)n3Cc3ccc(F)c(C#N)c3)cc2s1 [II-0555]	> 7.00	5.00 to 6.00	–	–	–
CNc1nc2cc(Cl)c(Nc3nc(=O)n(Cc4ncn(C)n4)c(=O)n3Cc3cc(F)c(F)c(Cl)c3)cc2o1 [II-0059]	> 7.00	5.00 to 6.00	–	–	–
Cc1cncc(-n2c(=O)nc(Nc3cc4cn(CC(F)F)nc4cc3Cl)n(Cc3cc(C#N)ccc3C)c2=O)c1 [II-0577]	–	–	8.96	7.07	–
Cc1cncc(-n2c(=O)nc(Nc3ccc4nc(C)n(C)c4c3)n(Cc3ccc(F)c(C#N)c3)c2=O)c1 [II-0354]	> 7.00	5.00 to 6.00	–	–	–
O=c1[nH]cccc1Cn1c(=O)nc(Nc2cc3cn(CCN4CCOCC4)nc3cc2Cl)n(Cc2cc(F)c(F)c(F)c2)c1=O [Compound I-0249]	> 7.00	5.00 to 6.00	–	–	–
O=C1CN=CC=C1Cn1c(=O)nc(Nc2cc3c(cc2Cl)OCCC3)n(Cc2cc(F)c(F)cc2F)c1=O [II-0047]	> 7.00	> 6.00	–	–	–
Cc1cncc(-n2c(=O)nc(Nc3cc4c(cc3Cl)OC(C)C4)n(Cc3ccc(F)c(C#N)c3)c2=O)c1 (centres unmarked) [II-0117]	> 7.00	–	–	–	> 6.00
Cn1cc2cc(Nc3nc(=O)n(-c4cncc(Cl)c4)c(=O)n3Cc3cc(F)c(F)c(C#N)c3)c(F)cc2n1 [II-0367]	> 7.00	> 6.00	–	–	–
Cc1cncc(-n2c(=O)nc(Nc3cc4cn(C)nc4cc3Br)n(Cc3ccc(F)c(C#N)c3)c2=O)c1 [II-0167]	> 7.00	> 6.00	–	–	–
N#Cc1cnc2[nH]c(=O)c(Cn3c(=O)nc(Nc4ccc5c(c4)CCO5)n(Cc4cc(F)c(F)c(F)c4)c3=O)cc2c1 [II-0322]	> 7.00	5.00 to 6.00	–	–	–
Cn1cc2cc(Nc3nc(=O)n(-c4cncc(Cl)c4)c(=O)n3Cc3cc(F)c(F)c(Cl)c3)ccc2n1 [II-0109]	–	–	7.40	6.10	–
Cc1cc(F)c(F)cc1Cn1c(Nc2cc3cn(C)nc3cc2Cl)nc(=O)n(Cc2ncn(C)n2)c1=O [II-0406]	> 7.00	> 6.00	–	–	–
Cc1cncc(-n2c(=O)nc(Nc3cc4cn(C)nc4cc3Cl)n(Cc3ccc(F)c(F)c3)c2=O)c1 [II-0028]	> 7.00	> 6.00	–	–	–
N#Cc1cc(Cn2c(Nc3ccc4ncccc4c3)nc(=O)n(-c3cncc4ccccc34)c2=O)ccc1F [II-0200]	> 7.00	5.00 to 6.00	–	–	–
Cc1cncc(-n2c(=O)nc(Nc3cc4cn(CCO)nc4cc3Cl)n(Cc3cc(F)c(F)cc3F)c2=O)c1 [II-0337]	> 7.00	> 6.00	–	–	–
Cc1ccc(Cl)cc1Cn1c(Nc2cc3c(cc2Cl)nc2n3CCN2)nc(=O)n(-c2cncc(Cl)c2)c1=O [II-0095]	> 7.00	> 6.00	–	–	–
CC(=O)Nc1nc2cc(Cl)c(Nc3nc(=O)n(Cc4ncn(C)n4)c(=O)n3Cc3cc(Cl)c(F)cc3F)cc2s1 [II-0554]	> 7.00	5.00 to 6.00	–	–	–
